Results on 27 compounds are retold here after US20100190755A1, “TETRACYCLINE COMPOUNDS FOR THE TREATMENT OF RHEUMATOID ARTHRITIS AND RELATED METHODS OF TREATMENT” (priority 2008, published 2010).

For one experiment, the system named is E. coli 25922. Description: Antibacterial activity MIC, Gram- (Table 9). The class given is cell-based. Particulars: Escherichia coli, CAMHB, 35° C., approximately 18 hr. As for the experimental part: (§1) 2 mg of each compound is dissolved in 100 μl of DMSO. The solution is then added to cation-adjusted Mueller Hinton broth (CAMHB), which results in a final compound concentration of 200 μg per ml. The tetracycline compound solutions are diluted to 50 μL volumes, with a test compound concentration of 0.098 μg/ml. Optical density (OD) determinations are made from fresh log-phase broth cultures of the test strains. Dilutions are made to achieve a final cell density of 1×10^6 CFU/ml. At OD=1, cell densities for different genera should be approximately:
(§2) 50 μl of the cell suspensions are added to each well of microtiter plates. The final cell density should be approximately 5×10^5 CFU/ml. These plates are incubated at 35° C. in an ambient air incubator for approximately 18 hr. The plates are read with a microplate reader and are visually inspected when necessary. The MIC is defined as the lowest concentration of the tetracycline compound that inhibits growth.

Experiment [1] relates to collagen-induced arthritis (CIA) in male DBA/1 mice. Description: CIA model, Example 3 (cumulative scores vs untreated controls). It is filed as in vivo. Particulars: Mus musculus. As for the experimental part: The CIA model data were acquired according to the following protocol: • 1. Male DBA/1 mice were anaesthetized by i.p. injection of ketamine/xylazine (1.25 mg/ml:0.25 mg/ml, 100 μl/mouse). • 2. Anaesthetized mice were immunized intradermally at the base of the tail with 0.1 or 0.2 ml of an emulsion composed of 100 or 200 μg bovine type II collagen in Complete Freund's Adjuvant (50 μl/spot x 2 or 4 spots). • 3. At day 21 after the immunization, mice received an intradermal boost of 100 μl of an emulsion composed of 100 μg bovine type II collagen in Incomplete Freund's Adjuvant (50 μl/spot x 2 spots) • 4. After onset of disease symptoms (usually 3-4 days after boost), tetracycline derivatives were administered daily into mice via intraperitoneal or oral routes for 8 to 15 days. Methotrexate (12 mg/kg/day) or dexmethasone (4 mg/kg/day) was used as a control for inflammation suppression. • 5. The disease severity was scored daily for 8-15 days after the appearance of the symptoms. Disease severity was graded as following: • a. Visual clinical score for the presence of inflammation in the fingers/toes of the forepaws and hindpaws: • 1. Erythema and mild swelling confined to the mid-foot (tarsals) or ankle joint • 2. Erythema and mild swelling extending from the ankle to the mid-foot • 3. Erythema and moderate swelling extending from the ankle to the metatarsal joints • 4. Erythema and severe swelling encompassing the ankle, foot, and digits. • b. Clinical swelling score for the presence of paw edema in the forepaws and hindpaws: • Paw thickness was measured daily by an engineering micrometer after isofluorane inhalation or ketamine/xylazine (1.25 mg/ml:0.25 mg/ml, 100 μl/mouse) i.p. injection.
Daily scores and paw swelling measurements for each treatment group of mice were added over the total observation period to obtain a cumulative score. Cumulative scores were compared between untreated controls and treated groups to determine tetracycline-induced inhibition.

For a further experiment, the system named is S. aureus RN450. Description: Antibacterial activity MIC, Gram+ (Table 9). Particulars: Staphylococcus aureus, CAMHB, 35° C., approximately 18 hr. The class given is cell-based. As for the experimental part: as §1, §2

What is called MIC is the lowest concentration found to suppress growth. As a reminder, the inhibition in vivo is the share of the control response that was lost under treatment. Low readings indicate a weak effect, high ones a strong effect.

Converted amounts (≈) assume the structure as drawn.

Turning to `CN(C)c1cc(C(=O)c2ccccc2)c(O)c2c1C[C@H]1C[C@H]3CC(O)=C(C(N)=O)C(=O)[C@@]3(O)C(O)=C1C2=O` [AZ], the MIC with E. coli 25922 is greater than 64 µg/mL; in the experiment on S. aureus RN450, 1 µg/mL (≈ 1.93 µM). In addition, in experiment [1], at 25 mg/kg the inhibition in vivo was 36%.
Taken in the same sequence, the figures for `CN(C)c1cc(-c2ccco2)c(O)c2c1C[C@H]1C[C@H]3CC(O)=C(C(N)=O)C(=O)[C@@]3(O)C(O)=C1C2=O` [AG] were greater than 64 µg/mL, 0.25 µg/mL (≈ 0.52 µM) and 39%.
For `CN(C)c1cc(-c2ccsc2)c(O)c2c1C[C@H]1C[C@H]3[C@H](N(C)C)C(O)=C(C(N)=O)C(=O)[C@@]3(O)C(O)=C1C2=O` [P], in that order: greater than 64 µg/mL, 0.5 µg/mL (≈ 0.927 µM) and 34%.
Taken in the same sequence, the figures for `CN(C)c1cc(C(F)(F)F)c(O)c2c1C[C@H]1C[C@H]3CC(O)=C(C(N)=O)C(=O)[C@@]3(O)C(O)=C1C2=O` [BD] were greater than 64 µg/mL, 0.5 µg/mL (≈ 1.04 µM) and 44%.
Regarding `CN(C)c1cc(C(=O)CC(C)(C)C)c(O)c2c1C[C@H]1C[C@H]3CC(O)=C(C(N)=O)C(=O)[C@@]3(O)C(O)=C1C2=O` [AX], the results for the MIC against E. coli 25922 and in the experiment with S. aureus RN450 were greater than 64 µg/mL and 0.5 µg/mL (≈ 0.975 µM), respectively. Besides, at 25 mg/kg the inhibition in vivo in experiment [1] was 51%.
Taken in the same sequence, the figures for `CN(C)c1cc(C(=O)N2CCCCC2)c(O)c2c1C[C@H]1C[C@H]3CC(O)=C(C(N)=O)C(=O)[C@@]3(O)C(O)=C1C2=O` [Y] were greater than 64 µg/mL, greater than 64 µg/mL and 22%.
For `CN(C)c1cc(C(=O)Nc2ccccc2)c(O)c2c1C[C@H]1C[C@H]3CC(O)=C(C(N)=O)C(=O)[C@@]3(O)C(O)=C1C2=O` [AI], in that order: greater than 64 µg/mL, 0.12 µg/mL (≈ 0.225 µM) and 62%.
Taken in the same sequence, the figures for `CN(C)c1cc(-c2ccccc2)c(O)c2c1C[C@H]1C[C@H]3[C@H](N(C)C)C(O)=C(C(N)=O)C(=O)[C@@]3(O)C(O)=C1C2=O` [Compound A] were greater than 64 µg/mL, 1 µg/mL (≈ 1.87 µM) and 42%.
With `CN(C)c1cc(-c2ncco2)c(O)c2c1C[C@H]1C[C@H]3[C@H](N(C)C)C(O)=C(C(N)=O)C(=O)[C@@]3(O)C(O)=C1C2=O` [O], the MIC against E. coli 25922 was greater than 64 µg/mL; against S. aureus RN450, 32 µg/mL (≈ 61 µM). Further, in experiment [1], the inhibition in vivo at 25 mg/kg amounted to 26%.
In the experiment on E. coli 25922, `Cc1cc(N(C)C)c2c(c1O)C(=O)C1=C(O)[C@]3(O)C(=O)C(C(N)=O)=C(O)C[C@@H]3C[C@@H]1C2` [AM] had an MIC greater than 64 µg/mL. In addition, testing at 6 mg/kg in experiment [1] (Dose 6 mg/kg) gave an inhibition in vivo of 36%. Also, in experiment [1], the inhibition in vivo at 12 mg/kg is 66% and the inhibition in vivo at 25 mg/kg stood at 73%. The same compound yielded a minimum inhibitory concentration (MIC) against S. aureus RN450 of 2 µg/mL (≈ 4.67 µM).
In the experiment on E. coli 25922, `CCC(=O)c1cc(N(C)C)c2c(c1O)C(=O)C1=C(O)[C@]3(O)C(=O)C(C(N)=O)=C(O)C[C@@H]3C[C@@H]1C2` [AL] gave an MIC greater than 64 µg/mL. Moreover, in experiment [1], 12 mg/kg produced 31% inhibition in vivo and the inhibition in vivo at 25 mg/kg came out at 62%. In the experiment on S. aureus RN450, the MIC is 1 µg/mL (≈ 2.13 µM).
As for `Cc1ccc(N(C)C)c2c1C(=O)C1=C(O)[C@]3(O)C(=O)C(C(N)=O)=C(O)C[C@@H]3C[C@@H]1C2` [AY], the figures for the MIC in the experiment with E. coli 25922 and in the experiment with S. aureus RN450 were greater than 64 µg/mL and 8 µg/mL (≈ 19.4 µM), respectively. The same compound came in with an inhibition in vivo at 25 mg/kg in experiment [1] of 38%.
Take `CN(C)c1cc(-c2ccccc2)c(O)c2c1C[C@H]1C[C@H]3CC(O)=C(C(N)=O)C(=O)[C@@]3(O)C(O)=C1C2=O` [AN]: the MIC against E. coli 25922 was greater than 64 µg/mL. In experiment [1], this compound returned an inhibition in vivo at 12 mg/kg of 49% and an inhibition in vivo at 25 mg/kg of 65%. This compound also returned an MIC against S. aureus RN450 of 1 µg/mL (≈ 2.04 µM).
On to `CN(C)c1cc(-c2cnoc2)c(O)c2c1C[C@H]1C[C@H]3CC(O)=C(C(N)=O)C(=O)[C@@]3(O)C(O)=C1C2=O` [AB], for which the results for the MIC against E. coli 25922 and with S. aureus RN450 were greater than 64 µg/mL and 0.5 µg/mL (≈ 1.04 µM), respectively. In addition, in experiment [1], 25 mg/kg produced 38% inhibition in vivo.
As to `CN(C)c1cc(-c2ccnn2C)c(O)c2c1C[C@H]1C[C@H]3CC(O)=C(C(N)=O)C(=O)[C@@]3(O)C(O)=C1C2=O` [AS], in the experiment with E. coli 25922, the MIC was greater than 64 µg/mL. Besides, in experiment [1], the inhibition in vivo at 12 mg/kg was 30% and the inhibition in vivo at 25 mg/kg was determined as 56%. This compound gave a minimum inhibitory concentration (MIC) against S. aureus RN450 of 1 µg/mL (≈ 2.02 µM).
Take `CN(C)c1cc(-c2ncco2)c(O)c2c1C[C@H]1C[C@H]3CC(O)=C(C(N)=O)C(=O)[C@@]3(O)C(O)=C1C2=O` [X]: the values for the MIC against E. coli 25922 and against S. aureus RN450 were greater than 64 µg/mL and 2 µg/mL (≈ 4.15 µM), respectively. Moreover, the inhibition in vivo at 25 mg/kg in experiment [1] came out at 40%.
For `CO/N=C(\C)c1cc(N(C)C)c2c(c1O)C(=O)C1=C(O)[C@]3(O)C(=O)C(C(N)=O)=C(O)[C@@H](N(C)C)[C@@H]3C[C@@H]1C2` [K], in that order: greater than 64 µg/mL, 4 µg/mL (≈ 7.57 µM) and 30%.
For `CCCNC(=O)c1cc(N(C)C)c2c(c1O)C(=O)C1=C(O)[C@]3(O)C(=O)C(C(N)=O)=C(O)C[C@@H]3C[C@@H]1C2` [V], the results for the minimal inhibitory concentration (MIC) in the experiment with E. coli 25922 and against S. aureus RN450 were greater than 64 µg/mL and 2 µg/mL (≈ 4 µM), respectively. Moreover, at 25 mg/kg the inhibition in vivo in experiment [1] was 43%.
In the case of `CO/N=C(/C)c1cc(N(C)C)c2c(c1O)C(=O)C1=C(O)[C@]3(O)C(=O)C(C(N)=O)=C(O)C[C@@H]3C[C@@H]1C2` [AD], the MIC is greater than 64 µg/mL in the experiment with E. coli 25922 and 2 µg/mL (≈ 4.12 µM) in the experiment with S. aureus RN450. In experiment [1], this compound gave an inhibition in vivo at 25 mg/kg of 30%.
For `CN(C)c1cc(CC(C)(C)C)c(O)c2c1C[C@H]1C[C@H]3CC(O)=C(C(N)=O)C(=O)[C@@]3(O)C(O)=C1C2=O` [AW], in that order: greater than 64 µg/mL, 0.5 µg/mL (≈ 1.03 µM) and 39%.
For `Cc1ccc(O)c2c1C[C@H]1C[C@H]3CC(O)=C(C(N)=O)C(=O)[C@@]3(O)C(O)=C1C2=O` [BA], in that order: 64 µg/mL (≈ 166 µM), 0.25 µg/mL (≈ 0.649 µM) and 34%.
Taken in the same sequence, the figures for `CCc1ccc2c(c1O)C(=O)C1=C(O)[C@]3(O)C(=O)C(C(N)=O)=C(O)[C@@H](N(C)C)[C@@H]3[C@@H](O)[C@@H]1[C@H]2C` [G] were 16 µg/mL (≈ 33.9 µM), 0.5 µg/mL (≈ 1.06 µM) and 55%.
Turning to `CN(C)c1cc(-c2ccn[nH]2)c(O)c2c1C[C@H]1C[C@H]3CC(O)=C(C(N)=O)C(=O)[C@@]3(O)C(O)=C1C2=O` [AC], the MIC is greater than 64 µg/mL in the experiment on E. coli 25922 and 2 µg/mL (≈ 4.16 µM) with S. aureus RN450. In experiment [1], 25 mg/kg produced 33% inhibition in vivo.
Take `CN(C)[C@@H]1C(O)=C(C(N)=O)C(=O)[C@@]2(O)C(O)=C3C(=O)c4c(O)ccc(-c5ccc(O)cc5)c4C[C@H]3C[C@@H]12` [N]: the MIC against E. coli 25922 came out at 0.5 µg/mL (≈ 0.987 µM); in the experiment on S. aureus RN450, 0.06 µg/mL (≈ 0.118 µM). In addition, 25 mg/kg produced 21% inhibition in vivo in experiment [1].
In turn, `C=CCc1cc(N(C)C)c2c(c1O)C(=O)C1=C(O)[C@]3(O)C(=O)C(C(N)=O)=C(O)[C@@H](N(C)C)[C@@H]3C[C@@H]1C2` [I] registered an inhibition in vivo at 25 mg/kg in experiment [1] of 29%.
Still for that read-out and setting: under `CN(C)c1ccc(O)c2c1C[C@H]1C[C@H]3CC(O)=C(C(N)=O)C(=O)[C@@]3(O)C(O)=C1C2=O` [F] stands 55%.
The same measure, in the same setting: under `COc1cc(-c2ccc(O)c3c2C[C@H]2C[C@H]4[C@H](N(C)C)C(O)=C(C(N)=O)C(=O)[C@@]4(O)C(O)=C2C3=O)cc(OC)c1OC` [Compound D] stands 27%.
